We go through four compounds from paper PMC4678293, “Identification of a lead like inhibitor of the hepatitis C virus non-structural NS2 autoprotease” (Antiviral Research, 2015).

The target of data set [1] is T1, NS2 autoprotease (NS2-NS3-FLAG, JFH-1 isolate, genotype 2a) (Hepatitis C virus genotype 2a, UniProt Q99IB8).
T1 construct: made in house
Nature of the data set: in vitro NS2 autoprotease assay: recombinant NS2-NS3-FLAG proteolysis, NS3-FLAG product quantified by western blot. It counts as biochemical. Particulars: 16 h. As to the method:
NS2-NS3-FLAG (JFH-1 isolate, genotype 2a) was purified, and proteolysis reactions were performed as previously described ([Shaw et al., 2015]). Compounds were added to reactions prior to addition of NS2-NS3-FLAG by dilution from DMSO stocks (final DMSO 0.75%). Reactions were incubated at room temperature for 16 h, terminated by addition of Laemmli buffer and the NS3-FLAG proteolysis product quantified by western blot using M2 anti-FLAG monoclonal antibody (Sigma Aldrich) and IRDye 680RD Donkey anti-Mouse (LI-COR Biosciences) on an Odyssey imager (LI-COR). NS3-FLAG was normalised to DMSO control and a non-linear regression fitted with Prism 6 (GraphPad) to determine 50% effective concentration (EC50).
Firstly, compounds were tested for the ability to block production of a substrate product of the NS2 autoprotease in an in vitro assay. This assay, using a recombinant NS2-NS3-FLAG precursor purified under denaturing conditions, measured NS2 autoprotease activity using quantitative western blot to monitor a proteolysis product (NS3-FLAG) ([Foster et al., 2010], [Shaw et al., 2015], [Tedbury and Harris, 2007]).
For orientation: A western blot detects proteins with antibodies after separation by electrophoresis.

Data set [2] concerns Jc1-NLuc (genotype 2a chimeric Jc1, infectious HCV). Description: HCVcc assay: Jc1-NLuc RNA electroporated into Huh7.5 cells, NanoLuc activity. Format: cell-based, Hepatitis C virus. Here is the method: (§1) For HCVcc experiments, 5 μg of Jc1-NLuc ([Amako et al., 2015]) transcript was electroporated into Huh7.5 cells and treated with compound as described in Section 2.5. Cytotoxicity or NanoLuc (NLuc) activity was measured at 48 h incubation with compound. Cells were lysed as in Section 2.4. Following the addition of 50 μl/well Nano-Glo Luciferase Assay Substrate (Promega) light emission was recorded using a BMG Labtech Fluostar plate reader and data analysed as in Section 2.5.

For data set [3], the system named is SGR-luc-NS2-5B(JFH-1) sub-genomic replicon. Nature of the data set: transient replication assay: SGR-luc-NS2-5B(JFH-1) RNA electroporated into Huh7.5 cells, luciferase. Format: cell-based, Hepatitis C virus. Here is the method: For transient SGR experiments, in vitro transcripts (2 μg) of firefly luciferase-containing SGR were electroporated into 4 × 10^6 Huh7.5 cells ([Blight et al., 2002]) or Huh7 cells at 950 μF and 270 V. 2 × 10^4 cells/well were seeded in a 96 well plate. At 4 h post electroporation (h.p.e.) media was replaced with media containing compounds.
(§2) Firefly luciferase was measured as in Section 2.4. Data was normalised to DMSO controls and EC50/CC50 determined using Prism 6 (GraphPad).

Data set [4] has as its system SGR-feo-NS3-5B(Con1) sub-genomic replicon. Description: luciferase assay in Huh7.5 cells stably harbouring SGR-feo-NS3-5B(Con1), independent of NS2. Format: cell-based, Hepatitis C virus. The following applies: 10 μM, Huh7.5 stable cells. As to the method:
(§3) Selection and maintenance of Huh7.5 cells stably harbouring SGR-feo-NS3-5B ([Wyles et al., 2009], [Wyles et al., 2007]) or SGR-feo-NS2-5B derived from JFH-1 (genotype 2a) and Con1 (genotype 1b) has previously been reported ([Shaw et al., 2015]). Cells were maintained in Dulbecco's modified Eagle's medium (DMEM) supplemented with 10% FBS, 100 IU penicillin ml^−1, 100 μg streptomycin ml^−1, 1% non-essential amino acids and 300 μg/ml G418 in a humidified incubator at 37 °C in 5% CO2. For screening, 2 × 10^4 cells/well were seeded in a 96-well plate in the absence of G418 and compounds were added to 10 μM final concentration by dilution from DMSO stocks. At 72 h, cells were washed in PBS and lysed in 30 μl/well Passive Lysis Buffer (PLB: Promega). Luciferase activity was quantified by automated addition of 40 μl LarI reagent (Promega) and light emission recorded over 6 s using a BMG Labtech Fluostar plate reader. Statistical significance was determined using the Student's t test.
(§4) Additionally, compounds were tested for the ability to specifically perturb NS2-dependent HCV genome replication in a cell-based assay. Compounds were tested against cells stably harbouring a HCV sub-genomic replicon (SGR) comprising either NS2-5B or NS3-5B with a firefly luciferase-neomycin phosphotransferase reporter ([Shaw et al., 2015], [Wyles et al., 2009], [Wyles et al., 2007]). […]

Data set [5] deals with Huh7.5 cells. Nature of the data set: cell viability by MTT in Huh7.5 cells electroporated with Jc1-NLuc. The following applies: Jc1-NLuc electroporated Huh7.5, 48 h.p.e.; read-out: Cell viability, MTT CC50, individual experiment. It counts as cell-based. As to the method:
(§5) For cytotoxicity assay, media was removed and cells were incubated in 1 mM thiazolyl blue tetrazolium bromide (MTT) for >2 h. MTT crystals were resuspended in 100 μl DMSO and absorbance at 570 nm quantified using an infinite F50 plate reader (Tecan). Alternatively, cytotoxicity was analysed using the ATPLite kit following the manufacturer's instructions, with light emission quantified using a BMG Labtech Fluostar plate reader.
as §1

Test in data set [6]: as above
Particulars: human, Jc1-NLuc electroporated Huh7.5, 48 h.p.e. Format: cell-based. As to the method:
as §5, §1

Data set [7] has as its system SGR-feo-NS2-5B(Con1) sub-genomic replicon, genotype 1b. Description: luciferase assay in Huh7.5 cells stably harbouring SGR-feo-NS2-5B(Con1). It counts as cell-based, Hepatitis C virus. The following applies: 10 μM, Huh7.5 stable cells, p = 0.0006. As to the method:
as §3, §4

Data set [8] concerns Huh7.5 cells. Nature of the data set: cell viability by MTT in Huh7.5 cells electroporated with SGR-luc-NS2-5B(JFH-1). The following applies: for CC50: MTT, Huh7.5, 48 h.p.e., single experiments in duplicate, read-out: Cell viability CC50, individual experiment. Format: cell-based. Here is the method: as §5, §2
Test in data set [9]: as above
Format: cell-based. Particulars: human, Huh7.5 cells electroporated with SGR-luc-NS2-5B(JFH-1); for CC50 at 48 h: MTT, Huh7.5, 48 h.p.e., Fig. 2D, read-out: Cell viability CC50, across experimental repeats. As to the method:
as §5, §2

Data set [10] is described as follows: cell viability by ATPLite in SGR-feo-NS2-5B(JFH-1) harbouring Huh7.5 cells. Format: cell-based. The following applies: human, Huh7.5 cells harbouring SGR-feo-NS2-5B(JFH-1) replicon. As to the method: as §5, §2
Data set [11] deals with Huh7.5 cells. Description: cytotoxicity at 25 μM in Huh7.5 cells, MTT or ATPlite assay. The following applies: 48 h. It counts as cell-based. Here is the method: as §5
For orientation: Tetrazolium dyes change colour on reduction, which living cells bring about.

A further data set has as its system NS5A. Nature of the data set: western blot for NS5A in lysates of SGR-luc-NS2-5B(JFH-1) electroporated Huh7.5 cells. It counts as cell-based, Hepatitis C virus. The following applies: 52 h.p.e. Here is the method:
2 × 10^6 cells were seeded in a 10 cm dish and incubated as indicated. Cells were washed in PBS and lysed in 100 μl PLB. Clarified lysates were analysed by 15% SDS-PAGE and western blot. Anti-GAPDH (Abcam) (1:20,000) or anti-NS5A ([Macdonald et al., 2003]) (1:5000) were followed by IRDye 680RD Donkey anti-Mouse or IRDye 800CW Donkey anti-Rabbit (LI-COR BioSciences) (1:10,000) respectively. Imaging was performed using an Odyssey Imager (LI-COR).

For data set [12], the system named is SGR-feo-NS2-5B(JFH-1) sub-genomic replicon. Nature of the data set: luciferase assay in Huh7.5 cells stably harbouring SGR-feo-NS2-5B(JFH-1). Format: cell-based, Hepatitis C virus. The following applies: Huh7.5, 48 h. As to the method:
as §3, §2
Additionally, compounds were tested for the ability to specifically perturb NS2-dependent HCV genome replication in a cell-based assay. […]

The mark [13] stands for this setting: 10-point dose response, in vitro proteolysis, * mean ± SD of three experimental repeats, read-out: JFH1 NS2-3 EC50.
Where [14] appears, read: Hepatitis C virus, Huh7.5, transient SGR-luc-NS2-5B(JFH-1), Huh7.5, 4-48 h.p.e., Fig. 2D, read-out: NS2-5B SGR EC50, mean ± SD across experimental repeats.
Where [15] appears, read: transient SGR-luc-NS2-5B(JFH-1), Huh7.5, 48 h.p.e., single experiments in duplicate, read-out: NS2-5B SGR EC50, individual experiment.

SMILES strings stand for the structures. Where “and” joins values, the source holds several entries; their conditions need not be identical. Equal entries are not always repeated. Entries after “also recorded” stand apart in the source; their conditions may differ. Where two headings read alike, the source gives them in different places.

T1 sequence (Q99IB8 908-1210): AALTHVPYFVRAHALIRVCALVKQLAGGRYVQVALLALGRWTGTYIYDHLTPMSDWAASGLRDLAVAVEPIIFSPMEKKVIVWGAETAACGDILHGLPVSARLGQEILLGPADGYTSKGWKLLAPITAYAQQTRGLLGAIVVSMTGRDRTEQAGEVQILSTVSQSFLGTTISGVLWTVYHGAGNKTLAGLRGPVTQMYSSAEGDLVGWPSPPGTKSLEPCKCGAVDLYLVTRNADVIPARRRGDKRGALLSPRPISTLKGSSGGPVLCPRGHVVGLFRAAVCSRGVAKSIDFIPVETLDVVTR

For the compound `CC1(C(=O)N2CCC3(C=Cc4ccccc43)CC2)CCCCC1` [160–1, 1-[(1-Methylcyclohexyl)carbonyl]-spiro[indene-1,4’-piperidine]], the EC50 in [1] (setting [13]) was determined as 43 ± 0.5 µM.
Usually melting point stands for the temperature, or range, at which the solid turns liquid. As to `O=C(C1CCCCC1)N1CCC2(C=Cc3ccccc32)CC1` [160–2, 1’-[(Cyclohexyl)carbonyl]-spiro[indene-1,4’-piperidine]], the melting point lay in the range of 134 to 135 °C. Moreover, the EC50 in [1] (setting [13]) is 68.4 ± 5.6 µM.
By CC50 is commonly meant the concentration giving 50% cytotoxicity. For the compound `CC1(C(=O)N2CCC3(CC2)c2ccccc2[C@@H](N)[C@@H]3O)CCCCC1` [Compound 160, (2R, 3R)-3-amino-1′-[(1-methylcyclohexyl)carbonyl]-2,3,dihydrospiro[indene-1,4′-piperidine]-2-ol], the EC50 in data set [2] (Hepatitis C virus, Huh7.5, read-out: Jc1-NLuc EC50, mean, Huh7.5, treated 4 to 48 h.p.e., mean ± SD of three experiments) is 17.3 ± 8.1 µM; in data set [2] (read-out: Jc1-NLuc EC50, individual experiment, Huh7.5, 48 h.p.e., three biological replicates), 24.4 µM and 18.9 µM and 8.54 µM; in data set [3] (setting [14]) it was 12 ± 6.4 µM; in data set [3] (setting [15]), 20.2 µM and 13.6 µM and 5.65 µM and 8.46 µM; in [1] (setting [13]), 44.6 ± 6.2 µM; in [1] (Fig. 1B dose response, read-out: EC50, reduction of NS3-FLAG product in the in vitro NS2 autoprotease assay) it was 39 µM. For the same compound, the EC50 in data set [12] (Hepatitis C virus, read-out: ff Luc EC50, SGR-feo-NS2-5B(JFH-1) stable cells, Huh7.5, 48 h, one representative experiment) is 43.4 µM; in [12] (read-out: ff Luc EC50, SGR-feo-NS2-5B(JFH-1) stable cells, one representative experiment) it was 43.4 µM. Moreover, the “luciferase activity time course relative to DMSO control” value in [3] (160 at 25 μM, added 4 h.p.e., read every 4 h for 48 h) was “reduction in luciferase activity and a lag in detectable luciferase activity”. The selectivity index in data set [3] (CC50/EC50, transient SGR, no accurate CC50) was > 5. The “luciferase activity relative to DMSO control, SGR-feo-NS3-5B(Con1)” value in data set [4] is on record as “no effect; also recorded: without affecting luciferase activity”. The CC50 in the data set on Huh7.5 cells [5] was 81.2 µM and 155 µM; in the data set on Huh7.5 cells [8] it was > 100 µM. Moreover, the CC50 at 48 h in [6] (mean ± SD of three experiments, read-out: Cell viability, MTT CC50, mean) was 110 ± 40 µM; in data set [6] (read-out: Cell viability, MTT CC50, individual experiment), 93 µM; in data set [9], > 100 µM; in [10], > 100 µM. In addition, in [7], the “luciferase activity relative to DMSO control, SGR-feo-NS2-5B(Con1)” value was “significantly reduced; also recorded: reduces luciferase activity”. The “concentration at which modest cytotoxic effects were observed” value in the data set on Huh7.5 cells [8] is ≥ 95 µM. Further, the viability at 300 µM in [9] (300 μM, read-out: cell viability at maximal attainable concentration) was found to be 40%. For the same compound, the “cytotoxicity at 25 μM” value in the data set with Huh7.5 cells [11] is listed as “no observed cytotoxicity”. Further, the “NS5A relative to DMSO control, western blot” value with NS5A (160 at 25 μM) was “comparable reduction in NS5A”.
On to `CCC[C@H](NC(=O)[C@@H]1[C@H]2CCC[C@H]2CN1C(=O)[C@@H](NC(=O)[C@@H](NC(=O)c1cnccn1)C1CCCCC1)C(C)(C)C)C(=O)C(=O)NC1CC1` [Telaprevir, reference compound], for which the EC50 in data set [3] (Hepatitis C virus, Huh7.5, 48 h, transient SGR-luc-NS2-5B(JFH-1), Huh7.5, 48 h.p.e., single experiments in duplicate, read-out: NS2-5B SGR EC50, individual experiment) came to 0.206 µM; in data set [3] (setting [14]), 0.176 ± 0.023 µM; in data set [3] (setting [15]) it was 0.146 µM. Further, in data set [3] (Telaprevir at 100 nM, compared with 160 at 25 μM), the “luciferase activity time course” value is on record as “comparable profile”. Also, the CC50 in the data set with Huh7.5 cells [8] was > 31.6 µM. Moreover, in data set [9], the CC50 at 48 h was > 31.6 µM. The “NS5A relative to DMSO control, western blot” value with NS5A (Telaprevir at 100 nM) is recorded as “comparable reduction in NS5A”.
